Measurements from patent publication US10323266B2, “Antimicrobial susceptibility testing device, antimicrobial susceptibility testing kit, and antimicrobial susceptibility testing method” (Hitachi, Ltd., priority 2015, dated 2019).

Tested on: Escherichia coli (ATCC25922 strain)
Assay: antimicrobial susceptibility test by an ATP method (ATP luminescence), E. coli
Type: cell-based
Conditions: for RLU value as compared with that at ampicillin 0 μg/mL: plateau after 2 hours
From the text: In the Example, the amount of luminescence is expressed by the integration of the 60-sec photon count, and the unit is the amount of luminescence (a.u.). Since the amount of luminescence and the amount of ATP are in a proportional relationship, the increase in the amount of luminescence and the increase in the amount of ATP are to be expressed with the same implications.
Benzalkonium chloride was used as an extraction liquid, and Lucifer HS set (Kikkoman) was used as a luminescence reagent.
First, H. influenzae was cultured one night on a chocolate agar medium under a carbon dioxide gas atmosphere of 5 to 10%, and on the next day, the colony was suspended in a Mueller-Hinton (hereinafter referred to as MH) medium to produce a bacterial suspension that was prepared to 0.5 McFarland. Next, in a plate in which 50 μL each of an MH medium with the antibody of the two-fold concentration of the final concentration was previously dispensed, 50 μL each of a bacterial suspension diluted 500-fold with the MH medium was dispensed to provide an AST panel.
The first plate 21 and the second plate 22 were joined via the joint portion 23. The temperature of the ATP examination culture plate 12 was kept at 37° C. by the heater 11 and after a certain period of time, 10 μL of the bacterial culture solution of H. influenzae was dispensed from the culture vessel in the first plate 21 into the reaction vessel in the second plate 22 in which the gas atmosphere was previously prepared to 5 to 10% carbon dioxide. Subsequently, 10 μL of the extraction liquid was dispensed from the extraction liquid holding part 43 into the reaction vessel, and then 50 μL of the luminescence reagent was dispensed from the luminescence reagent holding part 46 into the reaction vessel.
After dispensing the luminescence reagent, the amount of luminescence in the reaction vessel was detected by the optical detector 13. In the optical detector 13, photo-counting was performed for 1 minute, and the detected amount of luminescence RLU (relative light unit) was used as a measure of the amount of ATP.
Example 2 was conducted in the same manner as in Example 1, except that Escherichia coli (ATCC25922 strain, hereinunder, E. coli) was used as bacterial cells, ampicillin was used as an antibody, and the gas atmosphere in the culture solution holding part 47 and the reaction vessel 44 of the ATP examination culture plate 21 was an air atmosphere. The antibody (ampicillin) concentration was 0, 2, 4, and 8 μg/mL. […] When the ampicillin concentration was 0 μg/mL, RLU increased in an exponential manner from the start of the culture until 4 hours, and thereafter ran at a constant value. […] On the other hand, when the ampicillin concentration was 4 μg/mL and 8 μg/mL, RLU increased from the start of the culture until 2 hours and thereafter ran at a constant value. The RLU value was as low as about 1/20 as compared with that at an ampicillin concentration of 0 μg/mL, and it can be seen that the growth of E. coli was suppressed by the action of ampicillin.

CC1(C)S[C@@H]2[C@H](NC(=O)[C@H](N)c3ccccc3)C(=O)N2[C@H]1C(=O)O [ampicillin]
susceptibility determination of E. coli (ampicillin 2 μg/mL): resistant
RLU time course compared with ampicillin 0 μg/mL (ampicillin 2 μg/mL, air atmosphere, FIG. 10, 0 μg/mL: exponential increase until 4 hours, then constant): a similar trend was shown
susceptibility determination of E. coli (ampicillin 4 μg/mL): has sensitivity
RLU value as compared with that at ampicillin 0 μg/mL (ampicillin 4 μg/mL, air atmosphere, FIG. 10): about 1/20
susceptibility determination of E. coli (ampicillin 8 μg/mL): has sensitivity
RLU value as compared with that at ampicillin 0 μg/mL (ampicillin 8 μg/mL, air atmosphere, FIG. 10): about 1/20
concentration at which E. coli has sensitivity (tested 0, 2, 4 and 8 μg/mL, ATP luminescence): ≥ 4 µg/mL
